From US10138225B2 (Achillion Pharmaceuticals, Inc., priority 2015, dated 2018)

Biological target: T1, Human Factor D (Homo sapiens, UniProt P00746)
T1 construct: purified from human serum; purchased Complement Technology, Inc; host or cells: human serum (natural protein, not recombinant)
Test: Human Factor D Assay
Type: biochemical
Conditions: Table 1; Factor D 80 nM, substrate Z-L-Lys-SBzl; read-out: IC50
Procedure: Human Factor D (purified from human serum, Complement Technology, Inc.) at 80 nM final concentration is incubated with test compound at various concentrations for 5 minutes at room temperature in 50 mM Tris, 1M NaCl, pH 7.5. A synthetic substrate Z-L-Lys-SBzl and DTNB (Ellman's reagent) are added to final concentrations of 100 μM each. Absorbance at 405 nm (A405) is recorded at 30 second intervals for 30 minutes using a microplate spectrophotometer. IC50 values are calculated by nonlinear regression of complement Factor D reaction rates as a function of test compound concentration.

T1 sequence (P00746 26-253): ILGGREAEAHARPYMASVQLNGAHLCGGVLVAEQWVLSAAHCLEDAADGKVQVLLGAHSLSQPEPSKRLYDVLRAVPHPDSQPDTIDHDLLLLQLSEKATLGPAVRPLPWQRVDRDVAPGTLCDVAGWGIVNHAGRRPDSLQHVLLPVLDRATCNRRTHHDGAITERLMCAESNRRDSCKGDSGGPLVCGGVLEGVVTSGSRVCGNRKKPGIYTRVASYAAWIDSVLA

Compound | IC50
CC(=O)c1cn(CC(=O)N2C[C@H](F)C[C@H]2C(=O)NCc2cccc(Cl)c2F)c2ccc(NC(=O)NC3CC3)cc12 [Compound 1, (2S,4R)-1-(2-(3-acetyl-5-(3-cyclopropylureido)-1H-indol-1-yl)acetyl)-N-(3-chloro-2-fluorobenzyl)-4-fluoropyrrolidine-2-carboxamide] | < 1000 nM
CC(=O)c1cn(CC(=O)N2C[C@H](F)C[C@H]2C(=O)NCc2cccc(Cl)c2F)c2ccc(NC(=O)NCc3nn[nH]n3)cc12 [Compound 2, (2S,4R)-1-(2-(5-(3-((2H-tetrazol-5-yl)methyl)ureido)-3-acetyl-1H-indol-1-yl)acetyl)-N-(3-chloro-2-fluorobenzyl)-4-fluoropyrrolidine-2-carboxamide] | < 1000 nM
CC(=O)c1cn(CC(=O)N2[C@@H]3C[C@@H]3C[C@H]2C(=O)NCc2cccc(Cl)c2F)c2ccc(NC(=O)NC3CC3)cc12 [Compound 3, (1R,3S,5R)-2-(2-(3-acetyl-5-(3-cyclopropylureido)-1H-indol-1-yl)acetyl)-N-(3-chloro-2-fluorobenzyl)-2-azabicyclo[3.1.0] hexane-3-carboxamide] | < 1000 nM
CC(=O)c1cn(CC(=O)N2C[C@H](F)C[C@H]2C(=O)NCc2cccc(Cl)c2F)c2ccc(NC(=O)NC3(C)CC3)cc12 [Compound 4, (2S,4R)-1-(2-(3-acetyl-5-(3-(1-methylcyclopropyl)ureido)-1H-indol-1-yl)acetyl)-N-(3-chloro-2-fluorobenzyl)-4-fluoropyrrolidine-2-carboxamide] | < 1000 nM
CC(=O)c1cn(CC(=O)N2[C@@H]3C[C@@H]3C[C@H]2C(=O)N[C@H](C)c2cccc(Cl)c2F)c2ccc(NC(=O)NC3CC3)cc12 [Compound 5, (1R,3S,5R)-2-(2-(3-acetyl-5-(3-cyclopropylureido)-1H-indol-1-yl)acetyl)-N-((R)-1-(3-chloro-2-fluorophenyl)ethyl)-2-azabicyclo[3.1.0] hexane-3-carboxamide] | < 1000 nM
CC(=O)c1cn(CC(=O)N2C[C@H](F)C[C@H]2C(=O)NCc2cccc(Cl)c2F)c2ccc(NC(=O)NC(C)C)cc12 [Compound 6, (2S,4R)-1-(2-(3-acetyl-5-(3-isopropylureido)-1H-indol-1-yl)acetyl)-N-(3-chloro-2-fluorobenzyl)-4-fluoropyrrolidine-2-carboxamide] | < 1000 nM
CC(=O)c1cn(CC(=O)N2C[C@H](F)C[C@H]2C(=O)NCc2cccc(Cl)c2F)c2ccc(NC(=O)NCc3ccon3)cc12 [Compound 7, (2S,4R)-1-(2-(3-acetyl-5-(3-(isoxazol-3-ylmethyl)ureido)-1H-indol-1-yl)acetyl)-N-(3-chloro-2-fluorobenzyl)-4-fluoropyrrolidine-2-carboxamide] | < 1000 nM
CC(=O)c1cn(CC(=O)N2C[C@H](F)C[C@H]2C(=O)NCc2cccc(Cl)c2F)c2ccc(NC(=O)NCc3ncccn3)cc12 [Compound 8, (2S,4R)-1-(2-(3-acetyl-5-(3-(pyrimidin-2-ylmethyl)ureido)-1H-indol-1-yl)acetyl)-N-(3-chloro-2-fluorobenzyl)-4-fluoropyrrolidine-2-carboxamide] | < 1000 nM
CC(=O)c1cn(CC(=O)N2C[C@H](F)C[C@H]2C(=O)NCc2cccc(Cl)c2F)c2ccc(NC(=O)N3CCCC3)cc12 [Compound 9, N-(3-acetyl-1-(2-((2S,4R)-2-(3-chloro-2-fluorobenzylcarbamoyl)-4-fluloropyrrolidin-1-yl)-2-oxoethyl)-1H-indol-5-yl)pyrrolidine-1-carboxamide] | < 1000 nM
CC(=O)c1cn(CC(=O)N2C[C@H](F)C[C@H]2C(=O)Nc2cccc(OC(F)(F)F)c2F)c2ccc(NC(=O)NC3CC3)cc12 [Compound 10, (2S,4R)-1-(2-(3-acetyl-5-(3-cyclopropylureido)-1H-indol-1-yl)acetyl)-4-fluoro-N-(2-fluoro-3-(trifluoromethoxy)phenyl)pyrrolidine-2-carboxamide] | < 1000 nM
